By EC50 is commonly meant the concentration giving half of the maximal effect.

Here are results for 19 molecules from patent US9796702B2, “Dihydroquinoline pyrazolyl compounds” (Hoffmann-La Roche Inc., priority 2015, dated 2017).

Experiment [1] deals with T1, CYP11B2 (Homo sapiens (Human), UniProt P19099). Briefly: G-402 cellular enzyme assay, human CYP11B2 (aldosterone release). Format: cell-based. The note with it: G-402 cells expressing human CYP11B2; 1 μM Deoxycorticosterone. The text has this:
(§1) Herein we identified the use of the G-402 cell line as a host cell to ectopically express (transiently or stably) enzymes of the CYP11 family. Specifically we developed stable G-402 cells expressing ectopically human CYP11B1, human CYP11B2, human CYP11A1, cynmolgus CYP11B1 or cynomolgus CYP11B2 enzyme activity. Importantly the identified cell line G-402 expresses co-factors (adrenodoxin and adrenodoxin reductase) important for the activity of the CYP11 family and no relevant enzyme activity of the CYP11 family (in comparison to H295R cells) was detected in these cells. Therefore the G-402 cell line is uniquely suited as a host cell for the ectopic expression of enzymes from the CYP11 family.
(§2) G-402 cells can be obtained from ATCC (CRL-1440) and were originally derived from a renal leiomyoblastoma.
(§3) The expression plasmids contains the ORF for either human/cyno CYP11B1 or CYP11B2 under the control of a suitable promoter (CMV-promoter) and a suitable resistance marker (neomycin). Using standard techniques the expression plasmid is transfected into G-402 cells and these cells are then selected for expressing the given resistance markers. Individual cell-clones are then selected and assessed for displaying the desired enzymatic activity using 11-Deoxycorticosterone (Cyp11B2) or 11-Deoxycortisol (Cyp11B1) as a substrate.
(§4) G-402 cells expressing CYP11 constructs were established as described above and maintained in McCoy's 5a Medium Modified, ATCC Catalog No. 30-2007 containing 10% FCS and 400 μg/ml G418 (Geneticin) at 37° C. under an atmosphere of 5% CO2/95% air. Cellular enzyme assays were performed in DMEM/F12 medium containing 2.5% charcoal treated FCS and appropriate concentration of substrate (0.3-10 uM 11-Deoxycorticosterone, 11-Deoxycortisol or Corticosterone). For assaying enzymatic activity, cells were plated onto 96 well plates and incubated for 16 h. An aliquot of the supernatant is then transferred and analyzed for the concentration of the expected product (Aldosterone for CYP11B2; Cortisol for CYP11B1). The concentrations of these steroids can be determined using HTRF assays from CisBio analyzing either Aldosterone or Cortisol.
(§5) Inhibition of the release of produced steroids can be used as a measure of the respective enzyme inhibition by test compounds added during the cellular enzyme assay. The dose dependent inhibition of enzymatic activity by a compound is calculated by means of plotting added inhibitor concentrations (x-axes) vs. measured steroid/product level (y-axes). The inhibition is then calculated by fitting the following 4-parameter sigmoidal function (Morgan-Mercer-Flodin (MMF) model) to the raw data points using the least squares method:
(§6) [formula] wherein, A is the maximum y value, B is the EC50 factor determined using XLFit, C is the minimum y value and D is the slope value.
(§7) EC50 values for compounds claimed herein were tested with the G402-based assay system described. Cyp11B2 enzyme activity was tested in presence of 1 μM Deoxycorticosterone and variable amounts of inhibitors; Cyp11B1 enzyme activity was tested in presence of 1 μM Deoxycortisol and variable amounts of inhibitors.

In a further experiment the target is human CYP11B1 (Homo sapiens (Human), UniProt P15538). Briefly: G-402 cellular enzyme assay, human CYP11B1 (cortisol release). The class given is cell-based. The note with it: G-402 cells expressing human CYP11B1; 1 μM Deoxycortisol.
Sequence of human CYP11B1 (P15538 25-503): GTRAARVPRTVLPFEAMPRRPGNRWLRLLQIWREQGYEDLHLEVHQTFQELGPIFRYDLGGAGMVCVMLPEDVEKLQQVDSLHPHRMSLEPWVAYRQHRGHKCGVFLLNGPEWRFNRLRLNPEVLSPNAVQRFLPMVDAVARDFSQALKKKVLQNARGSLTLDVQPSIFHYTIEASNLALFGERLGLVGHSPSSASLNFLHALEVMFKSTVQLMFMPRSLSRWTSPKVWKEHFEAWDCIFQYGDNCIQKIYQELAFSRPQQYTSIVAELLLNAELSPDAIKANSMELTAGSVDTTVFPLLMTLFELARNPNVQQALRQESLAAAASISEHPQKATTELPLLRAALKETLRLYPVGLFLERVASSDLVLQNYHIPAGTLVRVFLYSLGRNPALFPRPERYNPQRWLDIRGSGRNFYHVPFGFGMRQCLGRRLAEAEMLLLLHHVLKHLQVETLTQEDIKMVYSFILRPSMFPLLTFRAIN
Source text: as §1, §2, §3, §4, §5, §6, §7

For experiment [2] the following is noted: cited from earlier work; for plasma aldosterone: FAD286: 4 weeks of treatment, spironolactone: 4 and 8 weeks of treatment; for cardiac and aortic medial hypertrophy / renal effects (albuminuria, azotemia, renovascular hypertrophy, glomerular injury, PAI-1 and osteopontin mRNA, tubulointerstitial fibrosis): angiotensin II and high salt treatment, rat; for angiotensin II and salt-stimulated PAI-1 mRNA expression: aorta and heart.

The conditions of experiment [3]: rats with experimental heart failure; cited from earlier work.
For experiment [4], the target named is T1, CYP11B2. The note with it: patients with primary aldosteronism, cited from earlier work.
For experiment [5], the system named is CYP11B2. The settings on record: patients with primary aldosteronism; cited from earlier work.

The structures appear in SMILES notation.

T1 sequence (P19099 25-503): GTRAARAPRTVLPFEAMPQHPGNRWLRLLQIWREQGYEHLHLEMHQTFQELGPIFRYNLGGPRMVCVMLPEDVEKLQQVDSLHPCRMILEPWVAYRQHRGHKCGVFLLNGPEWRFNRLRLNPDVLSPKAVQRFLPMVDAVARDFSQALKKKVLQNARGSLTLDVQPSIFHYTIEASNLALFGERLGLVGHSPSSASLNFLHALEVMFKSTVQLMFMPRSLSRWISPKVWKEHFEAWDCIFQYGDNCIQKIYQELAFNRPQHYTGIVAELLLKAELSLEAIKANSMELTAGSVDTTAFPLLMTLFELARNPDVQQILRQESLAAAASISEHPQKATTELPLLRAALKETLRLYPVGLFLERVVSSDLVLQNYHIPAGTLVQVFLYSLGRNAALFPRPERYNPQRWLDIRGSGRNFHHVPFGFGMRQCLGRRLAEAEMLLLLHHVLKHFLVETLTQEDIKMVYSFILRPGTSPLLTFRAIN

Turning to `CC(=O)N1CCC(Cc2c[nH]nc2-c2ccc3c(c2)CCC(=O)N3C)CC1` [Example 16, 6-[4-[(1-Acetyl-4-piperidyl)methyl]-1H-pyrazol-3-yl]-1-methyl-3,4-dihydroquinolin-2-one], the EC50 came to 0.0283 nM on CYP11B2 [1] and 0.266 nM at human CYP11B1.

At human CYP11B1, `CN1C(=O)CCc2cc(-c3n[nH]cc3CC3CCN(C(=O)c4cnn(C)c4)CC3)ccc21` [Example 17, 1-Methyl-6-[4-[[1-(1-methylpyrazole-4-carbonyl)-4-piperidyl]methyl]-1H-pyrazol-3-yl]-3,4-dihydroquinolin-2-one] showed an EC50 of 1.2 nM.

`CCS(=O)(=O)N1CCC(Cc2c[nH]nc2-c2ccc3c(c2)CCC(=O)N3C)CC1` [Example 18, 6-[4-[(1-Ethylsulfonyl-4-piperidyl)methyl]-1H-pyrazol-3-yl]-1-methyl-3,4-dihydroquinolin-2-one]: the results for the half-maximal effective concentration (EC50) on CYP11B2 [1] and at human CYP11B1 were 0.0052 nM and 0.216 nM, respectively.

With `CC(=O)N1CCC(Cc2c[nH]nc2-c2cc3c(cc2F)N(C)C(=O)CC3)CC1` [Example 19, 6-[4-[(1-Acetylpiperidin-4-yl)methyl]-1H-pyrazol-3-yl]-7-fluoro-1-methyl-3,4-dihydroquinolin-2-one], the figures for the half-maximal effective concentration (EC50) on CYP11B2 [1] and at human CYP11B1 were 0.0171 nM and 0.416 nM, respectively.

Take `CN1C(=O)CCc2c1ccc(-c1n[nH]cc1CC1CCN(C(=O)c3cnn(C)c3)CC1)c2F` [Example 20, 5-Fluoro-1-methyl-6-[4-[[1-(1-methylpyrazole-4-carbonyl)piperidin-4-yl]methyl]-1H-pyrazol-3-yl]-3,4-dihydroquinolin-2-one]: the response on human CYP11B1 was half-maximal at 0.723 nM (EC50).

As for `CC(=O)N1CCC(Cc2c[nH]nc2-c2ccc3c(c2F)CCC(=O)N3C)CC1` [Example 21, 6-[4-[(1-Acetyl-4-piperidyl)methyl]-1H-pyrazol-3-yl]-5-fluoro-1-methyl-3,4-dihydroquinolin-2-one], the values for the EC50 at CYP11B2 [1] and at human CYP11B1 were 0.012 nM and 0.447 nM, respectively.

The molecule `CCS(=O)(=O)N1CCC(Cc2cn[nH]c2-c2ccc3c(c2F)CCC(=O)N3C)CC1` [Example 22, 6-[4-[(1-Ethylsulfonylpiperidin-4-yl)methyl]-1H-pyrazol-3-yl]-5-fluoro-1-methyl-3,4-dihydroquinolin-2-one] gave an EC50 at human CYP11B1 of 0.133 nM.

For `CN1C(=O)CCc2c1ccc(-c1[nH]ncc1CC1CCN(C(=O)c3ncccc3Cl)CC1)c2Cl` [Example 28, 5-Chloro-6-[4-[[1-(3-chloropyridine-2-carbonyl)-4-piperidyl]methyl]-1H-pyrazol-3-yl]-1-methyl-3,4-dihydroquinolin-2-one], the values for the half-maximal effective concentration (EC50) at CYP11B2 [1] and on human CYP11B1 were 0.0276 nM and 2.45 nM, respectively.

As for `CN1C(=O)CCc2c1ccc(-c1[nH]ncc1CC1CCN(C(=O)c3ccnn3C)CC1)c2Cl` [Example 29, 5-Chloro-1-methyl-6-[4-[[1-(2-methylpyrazole-3-carbonyl)-4-piperidyl]methyl]-1H-pyrazol-3-yl]-3,4-dihydroquinolin-2-one], the EC50 on CYP11B2 [1] worked out at 0.0164 nM; on human CYP11B1, 3.31 nM.

As to `CN1C(=O)CCc2c1ccc(-c1[nH]ncc1CC1CCN(C(=O)c3ccncc3Cl)CC1)c2Cl` [Example 30, 5-Chloro-6-[4-[[1-(3-chloropyridine-4-carbonyl)-4-piperidyl]methyl]-1H-pyrazol-3-yl]-1-methyl-3,4-dihydroquinolin-2-one], the values for the concentration for a half-maximal effect (EC50) on CYP11B2 [1] and on human CYP11B1 were 0.0192 nM and 2.47 nM, respectively.

For the molecule `CN1C(=O)CCc2cc(-c3[nH]ncc3CC3CCN(C(=O)c4cncn4C)CC3)ccc21` [Example 31, 1-Methyl-6-[4-[[1-(3-methylimidazole-4-carbonyl)-4-piperidyl]methyl]-1H-pyrazol-3-yl]-3,4-dihydroquinolin-2-one], the values for the EC50 at CYP11B2 [1] and at human CYP11B1 were 0.007 nM and 1.12 nM, respectively.

With `CN1C(=O)CCc2cc(-c3[nH]ncc3CC3CCN(C(=O)c4nccn4C)CC3)ccc21` [Example 32, 1-Methyl-6-[4-[[1-(1-methylimidazole-2-carbonyl)-4-piperidyl]methyl]-1H-pyrazol-3-yl]-3,4-dihydroquinolin-2-one], the EC50 was found to be 0.0294 nM on CYP11B2 [1] and 0.351 nM on human CYP11B1.

Consider `CN1C(=O)CCc2cc(-c3[nH]ncc3CC3CCN(C(=O)c4ncccc4Cl)CC3)ccc21` [Example 34, 6-[4-[[1-(3-Chloropyridine-2-carbonyl)-4-piperidyl]methyl]-1H-pyrazol-3-yl]-1-methyl-3,4-dihydroquinolin-2-one], for which the concentration giving a half-maximal response (EC50) on CYP11B2 [1] turned out to be 0.0145 nM; on human CYP11B1, 0.547 nM.

Turning to `CCS(=O)(=O)N1CC2(CC(Cc3c[nH]nc3-c3ccc4c(c3Cl)CCC(=O)N4C)C2)C1` [Example 39, 5-Chloro-6-[4-[(2-ethylsulfonyl-2-azaspiro[3.3]heptan-6-yl)methyl]-1H-pyrazol-3-yl]-1-methyl-3,4-dihydroquinolin-2-one], the EC50 is 0.0059 nM at CYP11B2 [1] and 0.215 nM on human CYP11B1.

`CC(=O)N1CC2(CC(Cc3c[nH]nc3-c3ccc4c(c3Cl)CCC(=O)N4C)C2)C1` [Example 40, 6-[4-[(2-Acetyl-2-azaspiro[3.3]heptan-6-yl)methyl]-1H-pyrazol-3-yl]-5-chloro-1-methyl-3,4-dihydroquinolin-2-one]: the EC50 on CYP11B2 [1] was found to be 0.0495 nM; on human CYP11B1, 2.47 nM.

Turning to `CN1C(=O)CCc2c1ccc(-c1n[nH]cc1CC1CC3(C1)CN(C(=O)c1cnn(C)c1)C3)c2Cl` [Example 41, 5-Chloro-1-methyl-6-[4-[[2-(1-methylpyrazole-4-carbonyl)-2-azaspiro[3.3]heptan-6-yl]methyl]-1H-pyrazol-3-yl]-3,4-dihydroquinolin-2-one], the values for the EC50 at CYP11B2 [1] and on human CYP11B1 were 0.0377 nM and 7.29 nM, respectively.

For `N#Cc1ccc(C2CCCc3cncn32)cc1` (stereo not shown) [FAD286], in experiment [2], the plasma aldosterone entry was “reduced”; the “cardiac and aortic medial hypertrophy” value is given as “attenuated”; the “renal effects (albuminuria, azotemia, renovascular hypertrophy, glomerular injury, PAI-1 and osteopontin mRNA, tubulointerstitial fibrosis)” value is on record as “prevented these renal effects”; the “angiotensin II and salt-stimulated PAI-1 mRNA expression” value is listed as “not”. Further, in experiment [3], the “blood pressure and cardiovascular function and structure” value is “improved”; the “kidney function and morphology” value is “improve”.

Turning to `N#Cc1ccc([C@H]2CCc3cncn32)c(F)c1` [LCI699], the circulating aldosterone levels entry on CYP11B2 [4] (oral) is “significantly lower”. At CYP11B2 [4], the blood pressure result was “mildly decreased” and the hypokalemia entry is “corrected”. The “selectivity (effects on the glucocorticoid axis, cortisol synthesis)” value in the experiment on CYP11B2 [5] is recorded as “poor selectivity”.

Regarding `CC(=O)S[C@@H]1CC2=CC(=O)CC[C@]2(C)[C@H]2CC[C@@]3(C)[C@@H](CC[C@@]34CCC(=O)O4)[C@H]12` [spironolactone], in experiment [2], the plasma aldosterone result is reported as “increased”; the “cardiac and aortic medial hypertrophy” value was “attenuated”; the “renal effects (albuminuria, azotemia, renovascular hypertrophy, glomerular injury, PAI-1 and osteopontin mRNA, tubulointerstitial fibrosis)” value was “prevented these renal effects”; the “angiotensin II and salt-stimulated PAI-1 mRNA expression” value is recorded as “enhanced”.
